In paper PMC11161644, “An effective and rapidly degradable disinfectant from disinfection byproducts” (Nature Communications, 2024):
Several values for one entry are separate records, joined by “and”; a condition that tells them apart may be missing. Equal entries are not always repeated.

Experiments:
E. coli = assay: Fluorescence microscopic analysis of propidium iodide-stained E. coli (membrane integrity); format: cell-based, Escherichia coli; conditions: with increasing 2,6-DCQ dose
Description: The E. coli cells in the control and disinfected samples were pelleted by centrifugation at 8000×g (5 min, 4 °C) and resuspended in 200 μL PBS (0.1 M, pH 7.2). Propidium iodide[54] was added to the cell suspension at a concentration of 75 μM. After propidium iodide staining in darkness for 30 min, the samples were washed twice with PBS and mounted on glass slides. The samples were then examined using a fluorescence microscope (Eclipse Ti, Nikon, Japan). The fluorescence intensity was semi-quantified with ImageJ software (National Institutes of Health, Bethesda, MD).

[1] = Real-time stability testing of 2,6-DCQ (solid form, 2-propanol solution); format: physicochemical; conditions: for Time remaining stable: room temperature
Description: According to the U.S. Food and Drug Administration guidance, 2,6-DCQ in solid form or solution form (using 2-propanol as the solvent, a common ingredient in antiseptic liquids and hand sanitizers) was kept at room temperature (22 ± 1 °C) and 65 ± 5% of relative humidity for stability testing. The concentrations of 2,6-DCQ at different storage times were determined by an Agilent HPLC equipped with a UV detector at 280 nm. A disinfectant product is considered stable for a certain storage time if its concentration remains ≥90% of the initial concentration.

[2] = Acute oral toxicity, Hodge and Sterner toxicity scale; conditions: in vivo, rat, inferred from LD10 of ref 49
Description: The lethal dose 10% (LD 10; the dose at which 10% of the individuals die)

[3] = Degradation of 2,6-DCQ in phosphate-buffered ultrapure water (pH 8.2) in darkness; format: physicochemical
Description: For the stability of 2,6-DCQ in aquatic environments, we used seawater because seawater
investigate the effect of chloride ions on the stability of 2,6-DCQ, we have conducted the
degradation experiments of 2,6-DCQ in seawater (pH 8.2) and ultrapure water (added with 4 mM
phosphate buffer at pH 8.2) in darkness.
Lines 185–188 in the revision-marked manuscript, “We also investigated the effect of the high
chloride level in seawater on the degradation of 2,6-DCQ in darkness.

aquatic invertebrates = system: aquatic invertebrates; set-up: method as in earlier work; conditions: USEPA; cited from earlier work
freshwater fish = system: freshwater fish; set-up: method as in earlier work; conditions: USEPA; cited from earlier work

| SMILES | Propidium iodide fluorescence intensity relative to control sample (E. coli) | Time remaining stable ([1]; in 2-propanol) | Time remaining stable ([1]; solid form) | C/C0 ([1]; solid form, storage time 0 month) | C/C0 ([1]; solid form, storage time 16 month) | C/C0 ([1]; solid form, storage time 36 month) | C/C0 ([1]; solution form (2-propanol), storage time 0 month) | C/C0 ([1]; solution form (2-propanol), storage time 2.5 month) | C/C0 ([1]; solution form (2-propanol), storage time 7 month) | C/C0 ([1]; solution form (2-propanol), storage time 10 month) | C/C0 ([1]; solution form (2-propanol), storage time 12.5 month) | LD50 [2] | Ln (C/C0) ([3]; pH 8.2 in phosphate-buffered water, darkness, 0 h) | Effect of chloride ions on degradation ([3]; seawater vs phosphate-buffered water, pH 8.2, darkness) | Toxicity rating to aquatic invertebrates (aquatic invertebrates) | Toxicity rating to freshwater fish (freshwater fish) |
| --- | --- | --- | --- | --- | --- | --- | --- | --- | --- | --- | --- | --- | --- | --- | --- | --- |
| O=C1C=C(Cl)C(=O)C(Cl)=C1 [2,6-DCQ, 2,6-dichlorobenzoquinone] | 3.5–59.2 times | over 7 months | over 36 months | 1 | 1.072 and 1.01 | 1.029 and 1.0188 | 1 | 0.9898 | 0.9151 | 0.8855 | 0.8301 | ≥ 1000 mg/kg | 0 | no discernible effect | – | – |
| Cc1cc(O)cc(C)c1Cl [PCMX, para-chloro-meta-xylenol, reference compound] | – | – | – | – | – | – | – | – | – | – | – | – | – | – | moderately toxic | highly toxic |
